System: Ctenocephalides felis
Assay: Contact activity of compounds against fleas (Method B)
Conditions: adult fleas, treated filter paper; 72 hours assessment; test concentration of 100 ppm or less; versus untreated controls
Method: METHOD B: Screening Method to test Contact Activity of Compounds Against Fleas
A solution of the test compound was dispensed, using a pipette, onto filter paper placed into a glass vial. The filter paper was allowed to dry before infesting each vial with 10 adult Ctenocephalides felis. The treated Ctenocephalides felis were held in a controlled environment (24° C., 90-95% relative humidity) and assessment was performed at 24, 48 and 72 hours after application in comparison with untreated controls.

SMILES: CSCCNC(=O)c1ccc(C2=NOC(c3cc(C(F)(F)F)cc(C(F)(F)F)c3)(C(F)(F)F)C2)n2cccc12 (stereo not shown) [Compound 1.009, 5-[5-(3,5-Bistrifluoromethylphenyl)-5-trifluoromethyl-4,5-dihydroisoxazol-3-yl]-indolizine-8-carboxylic acid (2-methylthioethyl)-amide]
- control (Ctenocephalides felis, contact): at least 80%
